The text below walks through data of PubChem BioAssay AID1845199 (Molecular Pharmacology Branch, DTP, NCI, 2023).

This assay relates to 556581-035-R-J1 tumor spheroid viability, % test/control. Put plainly: Anticancer human tumor 556581-035-R-J1 patient-derived ovarian carcinoma cell line growth inhibition. As to conditions: spheroids with HUVEC and MSC; for viability, T/C: stronger effect = lower value. The gist of the method:
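Complex spheroids of malignant cells with endothelial cells and mesenchymal stem cells; agents alone or combined, from near clinical Cmax (or 10 microM if unknown) down in half-log steps, 0.25% DMSO final.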

[1] abbreviates: curve of first compound, second compound 0.003 µM.
The mark [2] stands for this setting: curve of first compound, second compound 0.00949 µM.
[3] abbreviates: curve of first compound, second compound 0.03 µM.
The mark [4] stands for this setting: curve of first compound, second compound 0.0949 µM.
[5] abbreviates: curve of first compound, second compound 0.3 µM.
[6] abbreviates: second compound 0.003 µM, first compound 0.0316 µM.
[7] abbreviates: second compound 0.003 µM, first compound 0.1 µM.
[8] abbreviates: second compound 0.003 µM, first compound 0.316 µM.
[9] abbreviates: second compound 0.003 µM, first compound 1 µM.
Where [10] appears, read: second compound 0.003 µM, first compound 3.16 µM.
The mark [11] stands for this setting: second compound 0.003 µM, first compound 10 µM.
Where [12] appears, read: second compound 0.00949 µM, first compound 0.0316 µM.
[13] abbreviates: second compound 0.00949 µM, first compound 0.1 µM.
The mark [14] stands for this setting: second compound 0.00949 µM, first compound 0.316 µM.
Setting [15] is: second compound 0.00949 µM, first compound 1 µM.
Setting [16] is: second compound 0.00949 µM, first compound 3.16 µM.
The mark [17] stands for this setting: second compound 0.00949 µM, first compound 10 µM.
Where [18] appears, read: second compound 0.03 µM, first compound 0.0316 µM.
Setting [19] is: second compound 0.03 µM, first compound 0.1 µM.
[20] abbreviates: second compound 0.03 µM, first compound 0.316 µM.
Where [21] appears, read: second compound 0.03 µM, first compound 1 µM.
The mark [22] stands for this setting: second compound 0.03 µM, first compound 3.16 µM.
Where [23] appears, read: second compound 0.03 µM, first compound 10 µM.
Where [24] appears, read: second compound 0.0949 µM, first compound 0.0316 µM.
Setting [25] is: second compound 0.0949 µM, first compound 0.1 µM.
[26] abbreviates: second compound 0.0949 µM, first compound 0.316 µM.
Setting [27] is: second compound 0.0949 µM, first compound 1 µM.
Setting [28] is: second compound 0.0949 µM, first compound 3.16 µM.
The mark [29] stands for this setting: second compound 0.0949 µM, first compound 10 µM.
[30] abbreviates: second compound 0.3 µM, first compound 0.0316 µM.
[31] abbreviates: second compound 0.3 µM, first compound 0.1 µM.
Setting [32] is: second compound 0.3 µM, first compound 0.316 µM.
[33] abbreviates: second compound 0.3 µM, first compound 1 µM.
The mark [34] stands for this setting: second compound 0.3 µM, first compound 3.16 µM.
Where [35] appears, read: second compound 0.3 µM, first compound 10 µM.

SMILES strings stand for the structures. “And” between values parts separate entries of the source, which are not always exact repeats. Identical values can stand only once.
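Also: spheroids exposed to compounds for 7 days before viability read.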

As usually defined, the viability, T/C is the ratio of treated to control. A word on the IC50: it is the concentration at which inhibition is half-maximal. As to `CC[C@@]1(O)C(=O)OCc2c1cc1n(c2=O)Cc2cc3c(CN(C)C)c(O)ccc3nc2-1`, the viability, T/C is 101% [middle of 10 runs] (compound 0.003 µM), 74.6% [middle of 10 runs] (compound 0.03 µM), 58.5% [middle of 10 runs] (compound 0.0949 µM) and 16.5% [middle of 10 runs] (compound 0.3 µM). For the same compound, the IC50 (compound alone, run of 10/17/2019) was 121 nM [middle of 4 runs] and the IC50 (compound alone, run of 10/25/2019) was 80.7 nM [middle of 5 runs].

Take `CC(C)n1c(=O)n(C)c2cnc3cc(F)c(-c4ccc(OCCCN5CCCCC5)nc4)cc3c21` + CC[C@@]1(O)C(=O)OCc2c1cc1n(c2=O)Cc2cc3c(CN(C)C)c(O)ccc3nc2-1: the half-maximal inhibitory concentration (IC50) runs as follows: under setting [1], > 10000 nM; under setting [2], > 10000 nM; under setting [3], > 10000 nM; under setting [4], 3370 nM; under setting [5], < 31.6 nM. Also, the viability, T/C under setting [6] is 84.2%; the viability, T/C under setting [7] is 85.9%; the viability, T/C under setting [8] was 80.6%; the viability, T/C under setting [9] was 82.4%; the viability, T/C under setting [10] was 62%; the viability, T/C under setting [11] is 60.6%. For the same compound, the viability, T/C is 81.9% under setting [12]; 76.4% under setting [13]; 77.6% under setting [14]; 77% under setting [15]; 72.7% under setting [16]; 58.9% under setting [17]. In addition, the viability, T/C was 75% under setting [18]; 73.5% under setting [19]; 71% under setting [20]; 72.1% under setting [21]; 66.5% under setting [22]; 54.5% under setting [23]. Also, the viability, T/C is 49.7% under setting [24]; 51.4% under setting [25]; 51.7% under setting [26]; 55.3% under setting [27]; 50.3% under setting [28]; 36.8% under setting [29]. Besides, the viability, T/C under setting [30] is 12.3%; the viability, T/C under setting [31] is 12.5%; the viability, T/C under setting [32] is 13.1%; the viability, T/C under setting [33] is 13.6%; the viability, T/C under setting [34] is 12.1%; the viability, T/C under setting [35] was 11.6%.

Regarding `CNCc1ccc(-c2cc(-c3nc(-c4ccc(S(=O)(=O)C(C)C)cc4)cnc3N)on2)cc1`, the viability, T/C (compound 0.00949 µM) is 107% and 97.6% and 104%; the viability, T/C (compound 0.03 µM) is 105% and 95.6% and 111%; the viability, T/C (compound 0.0949 µM) was 103% and 115% and 108%; the viability, T/C (compound 0.3 µM) was 106% and 112% and 108%; the viability, T/C (compound 0.949 µM) is 66.6% and 80.3% and 75.4%; the viability, T/C (compound 3 µM) is 20.2% and 19.4% and 27.6%. For the same compound, under “curve of compound”, the concentration for half-maximal inhibition (IC50) was 1430 nM and 1680 nM and 1750 nM.

Take `COc1ccc([C@@H](O)c2cc(-c3ncnc4cc(N5CCOCC5)ccc34)c(F)cc2Cl)nn1` + CC[C@@]1(O)C(=O)OCc2c1cc1n(c2=O)Cc2cc3c(CN(C)C)c(O)ccc3nc2-1: the IC50 reads like this: under setting [1], 1960 nM; under setting [2], 1540 nM; under setting [3], 785 nM; under setting [4], < 31.6 nM; under setting [5], < 31.6 nM. Also, the viability, T/C runs as follows: under setting [6], 99.8%; under setting [7], 99.8%; under setting [8], 83.4%; under setting [9], 63.7%; under setting [10], 40.5%; under setting [11], 31%. The viability, T/C reads like this: under setting [12], 85%; under setting [13], 86.9%; under setting [14], 75.3%; under setting [15], 57.8%; under setting [16], 37.8%; under setting [17], 31.2%. Further, the viability, T/C under setting [18] is 70.9%; the viability, T/C under setting [19] is 64%; the viability, T/C under setting [20] was 62.9%; the viability, T/C under setting [21] is 46.6%; the viability, T/C under setting [22] was 33.7%; the viability, T/C under setting [23] is 29.5%. Moreover, the viability, T/C runs as follows: under setting [24], 48.6%; under setting [25], 47.6%; under setting [26], 50.5%; under setting [27], 41.8%; under setting [28], 30.8%; under setting [29], 25.5%. Moreover, the viability, T/C by setting is: under setting [30], 13.7%; under setting [31], 11.9%; under setting [32], 11.6%; under setting [33], 13.2%; under setting [34], 17.4%; under setting [35], 18.5%.

`COc1cc(C)[nH]c(=O)c1CN1CCc2c(Cl)cc(C(OC)C3COC3)c(Cl)c2C1=O` (stereo not given) + CC[C@@]1(O)C(=O)OCc2c1cc1n(c2=O)Cc2cc3c(CN(C)C)c(O)ccc3nc2-1: the IC50 reads like this: under setting [1], > 10000 nM; under setting [2], > 10000 nM; under setting [3], > 10000 nM; under setting [4], < 31.6 nM; under setting [5], < 31.6 nM. The viability, T/C is 93.5% under setting [6]; 103% under setting [7]; 98.2% under setting [8]; 101% under setting [9]; 101% under setting [10]; 94.9% under setting [11]. Moreover, the viability, T/C under setting [12] was 90%; the viability, T/C under setting [13] was 92.1%; the viability, T/C under setting [14] is 85.8%; the viability, T/C under setting [15] is 87.1%; the viability, T/C under setting [16] was 91.5%; the viability, T/C under setting [17] is 86.3%. Also, the viability, T/C is, setting by setting: under setting [18], 64.9%; under setting [19], 65.1%; under setting [20], 64.3%; under setting [21], 65.3%; under setting [22], 67.9%; under setting [23], 65.4%. Besides, the viability, T/C under setting [24] is 45.3%; the viability, T/C under setting [25] was 48.7%; the viability, T/C under setting [26] is 49.9%; the viability, T/C under setting [27] was 49.2%; the viability, T/C under setting [28] is 47.9%; the viability, T/C under setting [29] is 47.1%. For the same compound, the viability, T/C is, setting by setting: under setting [30], 13.2%; under setting [31], 9.94%; under setting [32], 12.4%; under setting [33], 12%; under setting [34], 10.7%; under setting [35], 11.1%.

For the compound `COc1ccc([C@@H](O)c2cc(-c3ncnc4cc(N5CCOCC5)ccc34)c(F)cc2Cl)nn1`, the viability, T/C by setting is: (compound 0.0316 µM) 103% and 102% and 98.8%; (compound 0.1 µM) 104% and 111% and 99.6%; (compound 0.316 µM) 81.3% and 90.1% and 91%; (compound 1 µM) 61.1% and 70.3% and 64.7%; (compound 3.16 µM) 40.9% and 49.5% and 41.4%; (compound 10 µM) 31.9% and 35.1% and 31.1%. In addition, the IC50 (curve of compound) was 1810 nM and 2830 nM and 2020 nM.
